For one data set, the target named is T1, α1B adrenoceptor (Rattus norvegicus, UniProt P15823).
T1 construct: from tissue; host or cells: rat liver membranes
T1 sequence (P15823 1-515): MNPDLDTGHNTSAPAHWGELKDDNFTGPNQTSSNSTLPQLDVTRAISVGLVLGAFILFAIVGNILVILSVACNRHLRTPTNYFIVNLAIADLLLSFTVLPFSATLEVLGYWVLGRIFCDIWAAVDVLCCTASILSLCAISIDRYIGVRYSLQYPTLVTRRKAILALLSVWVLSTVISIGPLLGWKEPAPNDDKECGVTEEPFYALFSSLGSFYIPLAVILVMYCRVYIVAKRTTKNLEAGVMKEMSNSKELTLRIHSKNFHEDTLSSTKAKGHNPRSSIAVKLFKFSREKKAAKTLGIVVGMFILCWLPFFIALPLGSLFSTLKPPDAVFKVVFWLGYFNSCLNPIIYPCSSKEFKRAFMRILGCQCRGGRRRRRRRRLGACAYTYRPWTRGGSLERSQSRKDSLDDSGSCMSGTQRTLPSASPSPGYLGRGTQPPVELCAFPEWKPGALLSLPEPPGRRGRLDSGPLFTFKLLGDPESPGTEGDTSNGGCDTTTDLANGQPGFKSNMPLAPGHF
Kind of data set: Receptor binding assay, displacement of [3H]prazosin, rat liver membranes. The note with it: [3H]prazosin displacement, rat liver membranes; read-out: α1B (Rat liver) Ki. As for the experimental part: Receptor binding assays were performed using native α-adrenoceptors. The affinity of different compounds for α1A and α1B adrenoceptor subtypes was evaluated by studying their ability to displace specific [^3H]prazosin binding from the membranes of rat submaxillary and liver respectively (Michel et al, Br J Pharmacol, 98, 883-889 (1989)). The binding assays were performed according to U'Prichard et al. (Eur J Pharmacol, 50:87-89 (1978)) with minor modifications.
(§1) Submaxillary glands were isolated immediately after sacrifice. The liver was perfused with buffer (Tris HCl 50 mM, NaCl 100 mM, 10 mM EDTA pH 7.4). The tissues were homogenised in 10 volumes of buffer (Tris HCl 50 mM, NaCl 100 mM, EDTA 10 mM, pH 7.4). The homogenate was filtered through two layers of wet gauze and filtrate was centrifuged at 500 g for 10 min. The supernatant was subsequently centrifuged at 40,000 g for 45 min. The pellet thus obtained was resuspended in the same volume of assay buffer (Tris HCl 50 mM, EDTA 5 mM, pH 7.4) and were stored at −70° C. until the time of assay.
The membrane homogenates (150-250 μg protein) were incubated in 250 μl of assay buffer (Tris HCl 50 mM, EDTA 5 mM, pH 7.4) at 24-25° C. for 1 h. Non-specific binding was determined in the presence of 300 nM prazosin. The incubation was terminated by vacuum filtration over GF/B fibre filters. The filters were then washed with ice cold 50 mM Tris HCl buffer (pH 7.4). The filtermats were dried and bound radioactivity retained on filters was counted.The IC50 & Kd were estimated by using the non-linear curve fitting program using G Pad Prism software. The value of inhibition constant Ki was calculated from competitive binding studies by using Cheng & Prusoff equation (Cheng & Prusoff, Biochem Pharmacol, 1973,22: 3099-3108), Ki=IC50/(1+L/Kd) where L is the concentration of [^3H]prazosin used in the particular experiment (Table I).
(In general: In a radioligand displacement assay an active substance lowers the binding of a labelled ligand.)

In the next data set the target is T2, α1A adrenoceptor (Rattus norvegicus, UniProt P43140).
T2 construct: from tissue; host or cells: rat submaxillary gland membranes
T2 sequence (P43140 1-466): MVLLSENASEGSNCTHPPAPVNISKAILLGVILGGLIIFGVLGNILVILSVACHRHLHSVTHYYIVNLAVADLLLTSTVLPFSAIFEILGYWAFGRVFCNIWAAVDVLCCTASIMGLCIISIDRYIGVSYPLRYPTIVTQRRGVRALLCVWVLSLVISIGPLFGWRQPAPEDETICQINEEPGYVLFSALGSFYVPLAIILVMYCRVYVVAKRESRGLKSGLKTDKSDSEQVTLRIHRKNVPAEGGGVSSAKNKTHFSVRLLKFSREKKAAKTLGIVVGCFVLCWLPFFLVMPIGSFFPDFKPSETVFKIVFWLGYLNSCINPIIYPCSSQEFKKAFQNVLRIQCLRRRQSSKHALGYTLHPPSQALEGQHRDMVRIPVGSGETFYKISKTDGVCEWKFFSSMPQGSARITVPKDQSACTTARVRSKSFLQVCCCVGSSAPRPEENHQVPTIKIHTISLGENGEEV
The data set can be described thus: Receptor binding assay, displacement of [3H]prazosin, rat submaxillary membranes. The note with it: for Ki: [3H]prazosin displacement, rat submaxillary membranes, read-out: α1A (Rat submaxillary) Ki; for Selectivity α1B/α1A: ratio of Ki α1B (rat liver) / α1A (rat submaxillary). As for the experimental part: Receptor binding assays were performed using native α-adrenoceptors.
as §1
The membrane homogenates (150-250 μg protein) were incubated in 250 μl of assay buffer (Tris HCl 50 mM, EDTA 5 mM, pH 7.4) at 24-25° C. for 1 h. Non-specific binding was determined in the presence of 300 nM prazosin. The incubation was terminated by vacuum filtration over GF/B fibre filters. The filters were then washed with ice cold 50 mM Tris HCl buffer (pH 7.4). The filtermats were dried and bound radioactivity retained on filters was counted.The IC50 & Kd were estimated by using the non-linear curve fitting program using G Pad Prism software.

In a further data set the target is T3, α1D adrenoceptor (aorta) (Rattus norvegicus, UniProt P23944).
T3 construct: Isolated tissues were mounted in organ bath containing Krebs Henseleit buffer; from tissue; host or cells: isolated aorta of male wistar rats
T3 sequence (P23944 1-561): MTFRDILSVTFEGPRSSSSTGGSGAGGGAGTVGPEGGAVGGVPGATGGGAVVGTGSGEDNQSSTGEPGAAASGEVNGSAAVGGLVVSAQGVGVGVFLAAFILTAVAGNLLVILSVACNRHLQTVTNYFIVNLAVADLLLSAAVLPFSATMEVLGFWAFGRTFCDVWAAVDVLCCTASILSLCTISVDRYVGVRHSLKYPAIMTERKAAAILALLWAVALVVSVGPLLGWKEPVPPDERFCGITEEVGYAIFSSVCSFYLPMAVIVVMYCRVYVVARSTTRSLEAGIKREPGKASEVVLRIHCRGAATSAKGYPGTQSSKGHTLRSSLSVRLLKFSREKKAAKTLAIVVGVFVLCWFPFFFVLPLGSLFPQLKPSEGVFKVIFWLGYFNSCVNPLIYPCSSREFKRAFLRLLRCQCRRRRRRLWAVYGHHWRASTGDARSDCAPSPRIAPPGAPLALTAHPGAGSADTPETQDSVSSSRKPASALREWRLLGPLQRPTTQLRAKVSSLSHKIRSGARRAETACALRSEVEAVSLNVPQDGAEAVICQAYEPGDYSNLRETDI
Kind of data set: In vitro functional study, antagonism of norepinephrine-induced contraction of aorta. The class given is biochemical. The settings on record: tested compound at 0.1, 1 and 10 mM, read-out: α Adrenoceptor Subtype (pKB) α1D (converted). From the text:
(§2) In order to study selectivity of action of these compounds towards different α-adrenoceptor subtypes, the ability of these compounds to antagonise α1-adrenoceptor agonist induced contractile response on aorta (α1Dprostate (α1A and spleen (α1B was studied. Aorta and spleen tissues were isolated from urethane anaesthetised (1.5 gm/kg) male wistar rats. Isolated tissues were mounted in organ bath containing Krebs Henseleit buffer of following composition (mM): NaCl 118; KCl 4.7; CaCl2 2.5; MgSO4. 7H2O 1.2; NaHCO3 25; KH2PO41.2; glucose 11.5. Buffer was maintained at 37° C. and aereated with a mixture of 95% O2 and 5% CO2. A resting tension of 2 g (aorta) or 1 g (spleen and prostate)was applied to tissues. Contractile response was monitored using a force displacement transducer and recorded on chart recorders. Tissues were allowed to equilibrate for 2 hours. At the end of equilibration period, concentration response curves to norepinephrine (aorta) and phenylepinephrine (spleen and prostate) were obtained in absence and presence of tested compound (at concentration of 0.1,1 and 10 mM). Antagonist affinity was calculated and expressed as pKB vales in Table II.

The target of data set [1] is T4, α1A adrenoceptor (prostate) (Rattus norvegicus, UniProt P43140).
T4 construct: from tissue; host or cells: isolated prostate tissue
T4 sequence (P43140 1-466): T2 sequence (P43140 1-466)
The data set can be described thus: In vitro functional study, antagonism of phenylepinephrine-induced contraction of prostate. Type of data set: biochemical.
Excerpt: as §2

The term Ki denotes the dissociation constant of the complex between target and ligand, obtained from inhibition or displacement. In general, melting point refers to the temperature, or range, at which the solid turns liquid. `Cl.O=C1C2CC=CCC2C(=O)N1CCCN1CCN(c2ccc(F)cc2)CC1` (stereo not drawn) [Compound 04, 2-[3-{4-(4-Fluorophenyl)piperazin-1-yl}propyl]-3a,4,7,7a-tetrahydro-1H-isoindole-1,3(2H)-dione hydrochloride] gave a melting point of 228 to 230 °C. On α1B adrenoceptor, the Ki was 363 nM. For the same compound, on α1A adrenoceptor, the Ki was found to be 80 nM and the “Selectivity α1B/α1A” value is 4.5.
For `COc1ccccc1N1CCN(CC(C)CN2C(=O)C3CC=CCC3C2=O)CC1.Cl` (stereo not drawn) [Compound 30, 2-[3-{4-(2-Methoxyphenyl)piperazin-1-yl}-2-methylpropyl]-3a,4,7,7a-tetrahydro-1H-isoindole-1,3(2H)-dione hydrochloride] the same measures were 184 to 185 °C, 611 nM, 48 nM and 13.
Consider `CC(C)(C)c1ccc(N2CCN(CCCN3C(=O)C4CC=CCC4C3=O)CC2)cc1.Cl` (stereo not drawn) [Compound 27, 2-[3-{4-(4-tert-Butylphenyl)piperazin-1-yl}propyl]-3a,4,7,7a-tetrahydro-1H-isoindole-1,3(2H)-dione hydrochloride], for which the melting point lay within 264 to 265 °C. Moreover, the inhibitory constant (Ki) on α1B adrenoceptor is above 500 nM. Moreover, at α1A adrenoceptor, the Ki is above 500 nM and the “Selectivity α1B/α1A” value was 1.
As for `CCOc1ccccc1N1CCN(C(C)CCN2C(=O)C3CC=CCC3C2=O)CC1.Cl` (stereo not drawn) [Compound 31, 2-[3-{4-(2-Ethoxyphenyl)piperazin-1-yl}-3-methylpropyl]-3a,4,7,7a-tetrahydro-1H-isoindole-1,3(2H)-dione hydrochloride], the melting point was in the range of 246 to 248 °C. For the same compound, at α1B adrenoceptor, the Ki was 232 nM. Also, at α1D adrenoceptor (aorta), the Kb was 16.2 nM. Besides, in data set [1] (functional assays, from pKB values), the “Selectivity α1A/α1D” value is reported as 3.24. Moreover, the Kb in data set [1] (prostate, phenylepinephrine, tested compound at 0.1, 1 and 10 mM, read-out: α Adrenoceptor Subtype (pKB) α1A (converted)) is 5.01 nM. At α1A adrenoceptor, the Ki is 2.1 nM and the “Selectivity α1B/α1A” value is 110.
For `Cc1ccc(N2CCN(CCCN3C(=O)C4CC=CCC4C3=O)CC2)cc1C.Cl` (stereo not drawn) [Compound 07, 2-[3-{4-(3,4-Dimethylphenyl)piperazin-1-yl}propyl]-3a,4,7,7a-tetrahydro-1H-isoindole-1,3(2H)-dione hydrochloride], the melting point lay within 194 to 196 °C. Also, the inhibition constant Ki at α1B adrenoceptor was above 500 nM. Also, at α1A adrenoceptor, the inhibition constant Ki was determined as 183 nM and the “Selectivity α1B/α1A” value was found to be 2.7.
On the same counts, the results for `Cl.O=C1C2CC=CCC2C(=O)N1CCCN1CCN(c2ccc(Cl)cc2Cl)CC1` (stereo not drawn) [Compound 20, 2-[3-{4-(2,4-Dichlorophenyl)piperazin-1-yl}propyl]-3a,4,7,7a-tetrahydro-1H-isoindole-1,3(2H)-dione hydrochloride] are 210 to 211 °C, above 500 nM, 46.8 nM and 11.
For `Cl.O=C1C2CC=CCC2C(=O)N1CCCN1CCN(c2cccc(Cl)c2)CC1` (stereo not drawn) [Compound 02, 2-[3-{4-(3-Chlorophenyl)piperazin-1-yl}propyl]-3a,4,7,7a-tetrahydro-1H-isoindole-1,3(2H)-dione hydrochloride] the same measures were 221 to 223 °C, 398 nM, 83 nM and 4.8.
For `Cl.O=C1C2CC=CCC2C(=O)N1CCCN1CCN(c2ccc([N+](=O)[O-])cc2)CC1` (stereo not drawn) [Compound 16, 2-[3-{4-(4-Nitrophenyl)piperazin-1-yl}propyl]-3a,4,7,7a-tetrahydro-1H-isoindole-1,3(2H)-dione hydrochloride] the same measures were 259.5 to 261 °C, above 500 nM, above 500 nM and 1.
`Cc1ccc(N2CCN(CCCN3C(=O)C4CC=CCC4C3=O)CC2)cc1Cl.Cl` (stereo not drawn) [Compound 17, 2-[3-{4-(3-Chloro-4-methylphenyl)piperazin-1-yl}propyl]-3a,4,7,7a-tetrahydro-1H-isoindole-1,3(2H)-dione hydrochloride] yielded a melting point of 248 to 249 °C. Besides, the Ki on α1B adrenoceptor was determined as 37 nM. For the same compound, on α1A adrenoceptor, the Ki came to 48 nM and the “Selectivity α1B/α1A” value is on record as 0.78.

The values above are taken from patent publication US6914064B2, “1,4-Disubstituted piperazine derivatives useful as uro-selective α1-adrenoceptor blockers” (Ranbaxy Laboratories Limited, priority 2000, dated 2005).
